Experiments:
Jak2 wild type = Jak2 wild type (Homo sapiens, UniProt O60674); experiment: in vitro kinase assay with recombinant protein, autophosphorylation; format: biochemical
Jak2-V617F = Jak2-V617F (Homo sapiens, UniProt O60674, V617F); experiment: as above; format: biochemical
Sequence of Jak2-V617F (O60674 545-1132 V617F limits assumed): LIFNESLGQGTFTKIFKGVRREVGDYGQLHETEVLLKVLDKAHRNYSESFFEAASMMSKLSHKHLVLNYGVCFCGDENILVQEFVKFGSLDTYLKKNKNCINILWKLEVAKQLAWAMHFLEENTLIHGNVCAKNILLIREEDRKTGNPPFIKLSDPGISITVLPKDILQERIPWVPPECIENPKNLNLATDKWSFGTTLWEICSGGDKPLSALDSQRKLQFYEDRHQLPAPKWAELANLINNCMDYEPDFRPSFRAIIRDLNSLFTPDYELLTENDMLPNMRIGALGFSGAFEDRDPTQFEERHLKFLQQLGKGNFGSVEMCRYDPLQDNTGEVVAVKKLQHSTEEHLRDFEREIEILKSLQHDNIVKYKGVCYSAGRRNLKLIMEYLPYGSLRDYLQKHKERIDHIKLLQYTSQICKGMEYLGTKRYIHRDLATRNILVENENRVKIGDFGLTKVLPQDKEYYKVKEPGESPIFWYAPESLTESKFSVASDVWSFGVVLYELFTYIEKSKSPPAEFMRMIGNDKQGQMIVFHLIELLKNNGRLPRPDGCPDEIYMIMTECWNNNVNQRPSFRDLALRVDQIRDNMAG

Sequence of Jak2 wild type (O60674 whole entry): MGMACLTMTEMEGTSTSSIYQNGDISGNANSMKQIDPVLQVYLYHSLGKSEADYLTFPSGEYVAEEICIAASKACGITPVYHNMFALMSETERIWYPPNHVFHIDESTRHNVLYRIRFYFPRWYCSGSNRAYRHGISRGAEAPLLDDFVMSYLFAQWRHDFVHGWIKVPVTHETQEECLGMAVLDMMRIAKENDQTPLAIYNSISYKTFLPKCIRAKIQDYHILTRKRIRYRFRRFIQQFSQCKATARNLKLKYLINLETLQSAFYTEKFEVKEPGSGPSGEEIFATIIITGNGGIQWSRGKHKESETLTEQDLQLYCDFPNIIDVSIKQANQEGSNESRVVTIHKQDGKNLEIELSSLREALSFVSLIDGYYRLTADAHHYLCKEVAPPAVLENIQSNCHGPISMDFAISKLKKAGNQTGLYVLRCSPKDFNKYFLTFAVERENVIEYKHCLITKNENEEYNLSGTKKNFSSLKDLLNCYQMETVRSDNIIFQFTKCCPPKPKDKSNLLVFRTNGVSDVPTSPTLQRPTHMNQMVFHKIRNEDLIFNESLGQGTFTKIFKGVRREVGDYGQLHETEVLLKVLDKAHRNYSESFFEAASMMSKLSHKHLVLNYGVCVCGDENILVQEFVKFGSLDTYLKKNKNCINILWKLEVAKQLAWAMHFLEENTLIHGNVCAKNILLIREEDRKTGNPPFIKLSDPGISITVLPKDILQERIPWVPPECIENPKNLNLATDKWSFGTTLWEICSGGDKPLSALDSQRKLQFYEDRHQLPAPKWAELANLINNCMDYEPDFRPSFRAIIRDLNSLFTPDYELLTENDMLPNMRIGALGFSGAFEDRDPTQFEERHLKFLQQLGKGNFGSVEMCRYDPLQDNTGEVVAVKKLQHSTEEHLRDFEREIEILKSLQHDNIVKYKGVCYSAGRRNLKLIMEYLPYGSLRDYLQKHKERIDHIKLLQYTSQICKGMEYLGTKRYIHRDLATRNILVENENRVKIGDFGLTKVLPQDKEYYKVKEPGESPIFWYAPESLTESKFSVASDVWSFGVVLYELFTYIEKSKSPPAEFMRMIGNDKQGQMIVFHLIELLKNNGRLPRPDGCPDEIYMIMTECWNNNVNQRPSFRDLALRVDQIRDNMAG

- IC50 (Jak2 wild type): ~1000 nM
- IC50 (Jak2-V617F): ~100 nM
Compound: CN(C)c1ccc(C(O)c2cc3ccccc3s2)cc1 (centres unmarked) [A46, 1-benzothiophen-2-yl-(4-dimethylaminophenyl)methanol]

Source: paper PMC3237899 (2011)
